In data set [1] the test system is Mycobacterium tuberculosis. The data set can be described thus: Antimycobacterial activity against Mycobacterium tuberculosis H37Rv after 4 days by microplate alamar blue assay. The format is functional. Particulars: 96 h.
In data set [2] the test system is Mycobacterium tuberculosis. The data set can be described thus: Antimycobacterial activity against Mycobacterium tuberculosis H37Rv at 6.25 ug/ml after 4 days by microplate alamar blue assay. Format: functional. Particulars: 96 h. (The colour change of resazurin is a common sign of viable cells or microbes.)
The nature of data set [3]: Cytotoxicity against HEK293 cells after 72 hrs by MTT assay. Format: cell-based. Particulars: human, read-out: LC50. A general note: Formazan colour is commonly taken as a measure of viable cells.
The target of data set [4] is Histamine H1 receptor (Cavia porcellus) (UniProt P31389). The experiment in a line: Antagonist activity at guinea pig ileum histamine H1 receptor at 0.3 x 10'4 M. Format: functional, tissue-based.

Values after ≈ are worked out from the molar mass of the structure shown. A value given as a limit tells only on which side of the number the result lay.

Histamine H1 receptor (Cavia porcellus), sequence (P31389 whole entry): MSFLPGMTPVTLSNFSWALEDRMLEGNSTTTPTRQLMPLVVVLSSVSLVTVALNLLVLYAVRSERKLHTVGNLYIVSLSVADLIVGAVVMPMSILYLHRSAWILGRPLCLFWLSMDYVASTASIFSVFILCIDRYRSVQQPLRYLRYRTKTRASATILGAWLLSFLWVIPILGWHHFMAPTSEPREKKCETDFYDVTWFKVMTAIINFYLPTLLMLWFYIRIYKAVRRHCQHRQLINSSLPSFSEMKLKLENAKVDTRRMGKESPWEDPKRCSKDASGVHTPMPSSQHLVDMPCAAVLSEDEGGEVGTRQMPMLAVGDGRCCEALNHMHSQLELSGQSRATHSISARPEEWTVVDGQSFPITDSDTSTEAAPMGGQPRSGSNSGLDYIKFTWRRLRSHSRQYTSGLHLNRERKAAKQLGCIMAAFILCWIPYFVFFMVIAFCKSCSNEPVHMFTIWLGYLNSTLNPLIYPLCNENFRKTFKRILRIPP

With `CN1CC[C@H](N(Cc2ccccc2)c2ccccc2)CC1(C)C`, the MIC (as a rule, the lowest concentration that inhibits growth of the organism) in data set [1] was more than 6.25 µg/mL. Also, in data set [2], the inhibition (commonly the percentage by which the read-out fell short of the control) at 6.25 µg/mL turned out to be 31%. In addition, the CC50 at 72 h in data set [3] worked out at 69.5 µg/mL (≈ 225 µM).
The corresponding values for `COc1ccc(N(Cc2ccccc2)[C@H]2CCN(C)C(C)(C)C2)cc1` are more than 6.25 µg/mL, 26% and 82 µg/mL (≈ 242 µM).
Take `CC1(C)C[C@@H](N(Cc2ccccc2)c2ccccc2)CCN1c1ccccc1`: in data set [4], the pKb (in general, the negative decadic logarithm of the Kb, by convention in mol/L) was determined as 5. This compound showed an MIC in data set [1] of 6.25 µg/mL (≈ 16.9 µM). In data set [2], this compound yielded an inhibition at 6.25 µg/mL of 91%. In addition, the CC50 at 72 h in data set [3] was 108 µg/mL (≈ 291 µM).
On to `CN1CC[C@H](OC(c2ccccc2)c2ccccc2)CC1(C)C`, for which, in data set [4], the pKb was found to be 8.19.
In turn, `c1ccc(CN(c2ccccc2)[C@H]2CCN(c3ccccc3)[C@@H](c3ccccc3)C2)cc1` (relative stereo) registered an MIC in data set [1] of more than 6.25 µg/mL. The compound also displayed an inhibition at 6.25 µg/mL in data set [2] of 37%. Also, in data set [3], the CC50 at 72 h was more than 28 µg/mL.
`CC(C)[C@H]1C[C@@H](N(Cc2ccccc2)c2ccccc2)CCN1C` (relative stereo) showed an MIC in data set [1] of more than 6.25 µg/mL. In data set [2], 6.25 µg/mL produced 66% inhibition. Moreover, in data set [3], the CC50 at 72 h came out at 35.9 µg/mL (≈ 111 µM).
For `CC(C)[C@H]1C[C@@H](N(Cc2ccccc2)c2ccccc2)CCN1c1ccccc1` (relative stereo) the same measures were more than 6.25 µg/mL, 7% and 127 µg/mL (≈ 330 µM).
For `c1ccc(CN(c2ccccc2)[C@H]2CCN(c3ccccc3)[C@H](c3ccccc3)C2)cc1` (relative stereo) the same measures were more than 6.25 µg/mL, 22% and more than 28 µg/mL.
For `CC(C)[C@@H]1C[C@@H](N(Cc2ccccc2)c2ccccc2)CCN1c1ccccc1` (relative stereo) the same measures were more than 6.25 µg/mL, 52% and more than 28 µg/mL.
Turning to `CN1CCC(N(Cc2ccccc2)c2ccccc2)CC1` [BAMIPINE], the MIC in data set [1] is more than 6.25 µg/mL. The compound also displayed an inhibition at 6.25 µg/mL in data set [2] of 29%. Further, the CC50 at 72 h in data set [3] was determined as 64.1 µg/mL (≈ 229 µM).
For `NNC(=O)c1ccncc1` [ISONIAZID], the MIC in data set [1] came to 0.025 µg/mL (≈ 0.182 µM). Further, the CC50 at 72 h in data set [3] was more than 200 µg/mL.
The corresponding values for `CO[C@H]1/C=C/O[C@@]2(C)Oc3c(C)c(O)c4c(O)c(c(/C=N/N5CCN(C)CC5)c(O)c4c3C2=O)NC(=O)/C(C)=C\C=C\[C@H](C)[C@H](O)[C@@H](C)[C@@H](O)[C@@H](C)[C@H](OC(C)=O)[C@@H]1C` [RIFAMPIN] are 0.06 µg/mL (≈ 0.0729 µM) and more than 200 µg/mL.
